How the values were obtained:
[1] = biological target: T1, recombinant alpha-glucosidase II (murine full-length glucosidase II) (Mus musculus, UniProt Q8BHN3); test: Alpha-glucosidase II assay; assay type: biochemical; conditions: 4-methylumbelliferyl-alpha-D-pyranoside substrate, read-out: aGlc2 IC50
T1 construct: made in house; host or cells: HEK-293T cells co-transduced with two BacMam viruses (75% alpha, 25% beta); secreted into the culture supernatant
T1 sequence (Q8BHN3 with tags, fused parts or gaps isoform Q8BHN3-2): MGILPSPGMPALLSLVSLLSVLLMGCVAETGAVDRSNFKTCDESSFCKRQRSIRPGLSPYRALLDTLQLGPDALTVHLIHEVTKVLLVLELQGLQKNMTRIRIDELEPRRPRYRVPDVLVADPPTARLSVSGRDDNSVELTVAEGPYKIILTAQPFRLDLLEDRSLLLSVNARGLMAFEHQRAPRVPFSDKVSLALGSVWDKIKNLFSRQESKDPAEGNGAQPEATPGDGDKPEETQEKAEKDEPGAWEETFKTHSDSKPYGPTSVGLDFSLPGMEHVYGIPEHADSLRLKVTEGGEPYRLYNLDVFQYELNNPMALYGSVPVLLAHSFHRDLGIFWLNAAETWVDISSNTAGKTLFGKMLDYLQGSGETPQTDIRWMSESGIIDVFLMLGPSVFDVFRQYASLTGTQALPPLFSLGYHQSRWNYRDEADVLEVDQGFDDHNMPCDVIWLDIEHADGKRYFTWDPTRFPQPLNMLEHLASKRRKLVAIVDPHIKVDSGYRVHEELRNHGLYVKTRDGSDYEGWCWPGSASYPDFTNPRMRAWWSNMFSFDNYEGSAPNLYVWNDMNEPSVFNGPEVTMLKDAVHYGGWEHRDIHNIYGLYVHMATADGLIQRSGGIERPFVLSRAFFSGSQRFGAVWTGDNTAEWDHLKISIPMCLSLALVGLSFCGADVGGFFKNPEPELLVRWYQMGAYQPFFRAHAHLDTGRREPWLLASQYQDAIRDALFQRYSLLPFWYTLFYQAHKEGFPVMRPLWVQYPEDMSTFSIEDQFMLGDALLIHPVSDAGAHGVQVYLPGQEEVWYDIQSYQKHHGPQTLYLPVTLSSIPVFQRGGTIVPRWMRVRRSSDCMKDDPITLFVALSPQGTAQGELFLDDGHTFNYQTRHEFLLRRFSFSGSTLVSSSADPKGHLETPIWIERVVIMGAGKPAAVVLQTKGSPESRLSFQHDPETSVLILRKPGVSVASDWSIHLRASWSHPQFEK
T1 sequence (O08795 with tags, fused parts or gaps partner limits assumed): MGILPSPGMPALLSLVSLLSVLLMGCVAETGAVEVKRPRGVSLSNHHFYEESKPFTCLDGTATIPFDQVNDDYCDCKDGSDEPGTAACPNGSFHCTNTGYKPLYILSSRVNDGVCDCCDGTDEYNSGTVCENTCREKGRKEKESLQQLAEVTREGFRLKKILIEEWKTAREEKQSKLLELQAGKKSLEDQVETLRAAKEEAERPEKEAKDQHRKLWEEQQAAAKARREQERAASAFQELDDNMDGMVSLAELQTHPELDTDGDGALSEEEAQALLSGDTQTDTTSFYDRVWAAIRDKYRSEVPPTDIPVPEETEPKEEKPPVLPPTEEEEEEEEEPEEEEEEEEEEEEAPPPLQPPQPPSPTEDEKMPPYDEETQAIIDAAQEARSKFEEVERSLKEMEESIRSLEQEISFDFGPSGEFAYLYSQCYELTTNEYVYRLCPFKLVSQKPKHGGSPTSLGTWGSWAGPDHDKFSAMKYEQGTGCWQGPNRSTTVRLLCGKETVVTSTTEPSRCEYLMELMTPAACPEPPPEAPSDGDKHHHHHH
Text: Preparation of Murine Full-length Glucosidase II: Glucosidase is a heterodimeric protein consisting of alpha and beta subunits. […] A single construct was designed for each of the subunits for gene synthesis and cloning into Gateway entry vectors. The alpha subunit was appended with a Strep-affinity tag and the beta subunit was appended with a 6-His affinity tag. The entry vectors were cloned into Kemp Protein's BacMam Destination vector and the vectors were transformed into chemically competent DH10Bac E. coli cells to produce recombinant glucosidase II bacmids. Bacmid isolates for each of the subunits were obtained following two rounds of blue-white screening and they were transfected into Sf9 cells cultivated in serum-free medium (Thermo Fisher Scientific). MOI of 10 with a ratio of 75% alpha subunit and 25% beta subunit was selected for expression of glucosidase II. […] Productions and purifications of glucosidase II were carried out at scales ranging from 1-liter to 10-liters. […] In another example, production at the 10-liter scale was performed in stirred-tank bioreactors at 27° C. and 80 rpm with dissolved oxygen level maintained at 50% of oxygen in air and pH maintained between 7.0 and 7.2. For both subunits, the cells were transduced using a total MOI of 10 (75% alpha and 25% beta) and the culture supernatant was harvested at 96 hours post-transduction using centrifugation and filtration through a 0.2 micron filter.
The supernatant from a 10-liter culture was placed in a stir-jar and 25 mL of Nickel-SEPHAROSE Excel resin (GE) was added. The supernatant was stirred overnight at 25 rpm and 4° C. and the resin was collected into a column (26 mm×60 mm) and washed with 8 CV of 2×DPBS at pH 7.4. The glucosidase II protein was eluted using a linear gradient of 0-60% of 2×DPBS and 500 mM imidazole at pH 7.4. Fractions (10 mL) were collected and analyzed by SDS PAGE and Western Blot (reducing anti-His and anti-Strep). Fractions containing purified glucosidase II were pooled and concentrated for application to a SUPERDEX 200 (26 mm×600 mm) column (GE). The column buffer was PBS pH 7.2 and the concentrated eluate pool was loaded at a rate of 1 mL per minute. Fractions (3 mL) were collected and analyzed using SDS PAGE and Western Blot (reducing anti-His and anti-Strep). Fractions containing purified glucosidase II in PBS pH 7.2 were pooled and concentrated to 1 mg/mL. The final product was filter sterilized and stored at 4° C.
Alpha-glucosidase II Assay: The assay was performed by incubating recombinant enzyme alpha-glucosidase II for 60 minutes at 37° C. with multiple dilutions of test compounds. 4-methylumbelliferyl-alpha-D-pyranoside was then introduced as the substrate to the mixture. Fluorogenic 1,4-methyllumbelliferone was generated, and the reaction was stopped with the stop solution (0.5 M glycine, 0.3 M NaOH pH 10) after an incubation of 30 minutes at 37° C. […] Percent inhibition was then plotted as a function of concentration for each test compound.

rat maltase = test: Intestinal alpha-glucosidase assay, maltose substrate; assay type: biochemical; conditions: alpha-glucosidase from intestinal rat powder
Method: Intestinal alpha-glucosidases (rat maltase and sucrase): Intestinal alpha-glucosidases act upon 1,4-alpha-glucoside bonds, breaking down disaccharides to glucose. To perform this assay, partially purified alpha-glucosidase from intestinal rat powder was incubated for 60 minutes at 37° C. with multiple dilutions of test compounds. Maltose or Sucrose respectively was then introduced as substrate to the mixture and incubated for 30 minutes at 37° C. The reaction was stopped by a 5-minute incubation at 90° C. and the resultant glucose production is detected using Sigma's Glucose GO Kit. Percent inhibition was then plotted as a function of concentration for each test compound. The IC50 was determined using a 4-PL curve fit and serves as the measure of relative inhibition of each test compound (see Table 4). Table 4 summarizes the results of IC50s for each molecule against each tested glucosidase enzyme.

IC50 [1] [nM]	IC50 (rat maltase) [nM]	SMILES
33.7	1.65	[N-]=[N+]=Nc1ccc(NCCCCCCN[C@H]2C[C@](O)(CO)[C@@H](O)[C@H](O)[C@H]2O)c([N+](=O)[O-])c1 [Compound 2, (1S,2S,3R,4S,5S)-5-((6-((4-azido-2-nitrophenyl)amino)hexyl)amino)-1-(hydroxymethyl)cyclohexane-1,2,3,4-tetraol]
490	102	COCCCCCCCCCN[C@H]1C[C@](O)(CO)[C@@H](O)[C@H](O)[C@H]1O [Compound 3, (1S,2S,3R,4S,5S)-1-(hydroxymethyl)-5-((9-methoxynonyl)amino)cyclohexane-1,2,3,4-tetraol]
1420	512	O=[N+]([O-])c1cc(-n2cnnn2)ccc1NCCCCCCN[C@H]1C[C@](O)(CO)[C@@H](O)[C@H](O)[C@H]1O [Compound 4, (1S,2S,3R,4S,5S)-1-(hydroxymethyl)-5-((6-((2-nitro-4-(1H-tetrazol-1-yl)phenyl)amino)hexyl)amino)cyclohexane-1,2,3,4-tetraol]
15.5	< 33.3	O=[N+]([O-])c1cc(-n2ccnn2)ccc1NCCCCCCN[C@H]1C[C@](O)(CO)[C@@H](O)[C@H](O)[C@H]1O [Compound 6, (1S,2S,3R,4S,5S)-1-(hydroxymethyl)-5-((6-((2-nitro-4-(1H-1,2,3-triazol-1-yl)phenyl)amino)hexyl)amino)cyclohexane-1,2,3,4-tetraol]
1.1	8.14	O=[N+]([O-])c1cc(-c2ncccn2)ccc1NCCCCCCN[C@H]1C[C@](O)(CO)[C@@H](O)[C@H](O)[C@H]1O [Compound 7, (1S,2S,3R,4S,5S)-1-(hydroxymethyl)-5-((6-((2-nitro-4-(pyrimidin-2-yl)phenyl)amino)hexyl)amino)cyclohexane-1,2,3,4-tetraol]
1010	5.3	[N-]=[N+]=Nc1ccc(NCCCCN[C@H]2C[C@](O)(CO)[C@@H](O)[C@H](O)[C@H]2O)c([N+](=O)[O-])c1 [Compound 8, (1S,2S,3R,4S,5S)-5-((4-((4-azido-2-nitrophenyl)amino)butyl)amino)-1-(hydroxymethyl)cyclohexane-1,2,3,4-tetraol]
27	4.86	[N-]=[N+]=Nc1ccc(NCCCCCN[C@H]2C[C@](O)(CO)[C@@H](O)[C@H](O)[C@H]2O)c([N+](=O)[O-])c1 [Compound 9, (1S,2S,3R,4S,5S)-5-((5-((4-azido-2-nitrophenyl)amino)pentyl)amino)-1-(hydroxymethyl)cyclohexane-1,2,3,4-tetraol]
37000	26.1	[N-]=[N+]=Nc1ccc(NCCOCCN[C@H]2C[C@](O)(CO)[C@@H](O)[C@H](O)[C@H]2O)c([N+](=O)[O-])c1 [Compound 10, (1S,2S,3R,4S,5S)-5-((2-(2-((4-azido-2-nitrophenyl)amino)ethoxy)ethyl)amino)-1-(hydroxymethyl)cyclohexane-1,2,3,4-tetraol]
> 100000	7580	O=C(O)CCCCN[C@H]1C[C@](O)(CO)[C@@H](O)[C@H](O)[C@H]1O [Compound 11, 5-(((1S,2S,3R,4S,5S)-2,3,4,5-tetrahydroxy-5-(hydroxymethyl)cyclohexyl)amino)pentanoic acid]
> 100000	1300	N[C@H]1C[C@](O)(CO)[C@@H](O)[C@H](O)[C@H]1O [Valiolamine]

SMILES	IC50 [1] [nM]	IC50 (rat maltase) [nM]
O=[N+]([O-])c1cc(-n2nccn2)ccc1NCCCCCCN[C@H]1C[C@](O)(CO)[C@@H](O)[C@H](O)[C@H]1O [Compound 5, (1S,2S,3R,4S,5S)-1-(hydroxymethyl)-5-((6-((2-nitro-4-(2H-1,2,3-triazol-2-yl)phenyl)amino)hexyl)amino)cyclohexane-1,2,3,4-tetraol]	< 1	< 33.3

From patent US12673924B2, “Valiolamine derivatives as glucosidase inhibitors” (Emergent Product Development Gaithersburg Inc., priority 2021, dated 2026)
